Reference: patent US8362000B2, “Azetidinyl diamides as monoacylglycerol lipase inhibitors” (Janssen Pharmaceutica NV, priority 2009, dated 2013)
Where a chain is given by its changes, count along the chain named. Like-named read-outs stand apart in the source and are kept apart here.

What was measured:
mutant MGL = molecular target: T1, mutant MGL (Homo sapiens, UniProt Q99685, L169S/L176S); test: MGL ThermoFluor assay - mutant; assay type: binding
T1 sequence (Q99685 1-303 L169S/L176S): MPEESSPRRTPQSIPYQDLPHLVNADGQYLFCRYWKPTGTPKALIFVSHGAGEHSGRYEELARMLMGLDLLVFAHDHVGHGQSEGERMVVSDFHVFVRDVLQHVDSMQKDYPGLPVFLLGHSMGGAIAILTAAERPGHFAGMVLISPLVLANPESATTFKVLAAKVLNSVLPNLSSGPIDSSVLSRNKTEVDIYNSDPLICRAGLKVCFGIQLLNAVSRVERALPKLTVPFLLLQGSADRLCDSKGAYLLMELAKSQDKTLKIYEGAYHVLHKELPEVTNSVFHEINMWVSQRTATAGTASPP

[1] = molecular target: T2, purified wild type MGL (wt-MGLL 6H-11-313) (Homo sapiens, UniProt Q99685)
T2 sequence (Q99685 1-303): T1 sequence (Q99685 1-303 L169S/L176S) with S169L, S176L

MGL = molecular target: T3, MGL (Rattus norvegicus, UniProt Q8R431); test: 2-AG accumulation assay in rat brain homogenate; assay type: biochemical; conditions: rat brain homogenate, 2-AG accumulation as percent of vehicle; for 2-AG accumulation, % of vehicle control at 1 µM: compound 1 μM, read-out: Rat Brain 2AG % VehCntrl (%) @ 1 μM; for 2-AG accumulation, % of vehicle control at 10 µM: compound 10 μM, read-out: Rat Brain 2AG % VehCntrl (%) @ 10 μM
T3 construct: one g rat brain was homogenized using a Polytron homogenizer; from tissue; host or cells: rat brain homogenate
T3 sequence (Q8R431 1-303): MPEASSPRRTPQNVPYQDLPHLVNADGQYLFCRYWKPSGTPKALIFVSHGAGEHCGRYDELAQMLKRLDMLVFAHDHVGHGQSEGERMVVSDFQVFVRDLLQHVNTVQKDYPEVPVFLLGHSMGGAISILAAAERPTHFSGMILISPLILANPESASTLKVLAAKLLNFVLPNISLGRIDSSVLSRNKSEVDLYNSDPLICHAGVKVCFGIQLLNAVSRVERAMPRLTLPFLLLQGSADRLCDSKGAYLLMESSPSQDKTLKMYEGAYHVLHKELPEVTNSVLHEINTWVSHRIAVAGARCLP

[2] = ThermoFluor concentration-response, read-out: MGL mutant ThermoFluor Kd
[3] = ThermoFluor thermal stability binding assay, read-out: MGL mutant ThermoFluor Kd
[4] = ThermoFluor, compound concentration measured by qNMR, read-out: MGL mutant ThermoFluor qKd (using qNMR conc.)
[5] = ThermoFluor, compound concentration measured by qNMR, read-out: MGL mutant ThermoFluor qKd (μM) (using qNMR conc.)

Row | SMILES | Kd (mutant MGL; [2]) | IC50 [1] | 2-AG accumulation, % of vehicle control at 1 µM (MGL) | Kd (mutant MGL; [3]) | Kd (mutant MGL; [4]) | Kd (mutant MGL; [5]) | Kd (mutant MGL; compound concentration measured by qNMR, read-out: MGL mutant ThermoFluor qKd (using qNMR conc.)) | 2-AG accumulation, % of vehicle control at 10 µM (MGL) | 2-AG accumulation, % of vehicle control at 0.1 µM (MGL; compound 0.1 μM, read-out: Rat Brain 2AG % VehCntrl (%) @ 0.1 μM)
1 | O=C(c1ccc2c(c1)CCN(C(=O)C1CCC(C(F)(F)F)CC1)C2)N1CC(N2CCN(C(=O)c3nccs3)CC2)C1 (stereo not shown) [Cpd 685] |  | 0.033 µM | 756% | 0.067 µM |  |  |  |  | 
2 | O=C(c1nccs1)N1CCN(C2CN(C(=O)c3[nH]c4nc(C(F)(F)F)ccc4c3Br)C2)CC1 [Cpd 675] |  | 0.019 µM | 330% |  | 0.025 µM |  |  |  | 
3 | Cc1cn(-c2ccccc2)c2ccc(C(=O)N3CC(N4CCN(C(=O)c5ccccc5)CC4)C3)cc12 [Cpd 577] |  | 0.052 µM | 207% |  |  | 0.026 µM |  |  | 
4 | O=C(c1nn(-c2ccc(Cl)cc2Cl)c2c1CSC/C2=C\c1ccc(F)cc1)N1CC(N2CCN(C(=O)C(F)(F)F)CC2)C1 [Cpd 1022] | 0.228 µM | 0.067 µM | 189% |  |  |  | 1.06 µM |  | 
5 | O=C(c1ccccc1)N1CCN(C2CN(C(=O)c3cc4cccc(C(F)(F)F)c4s3)C2)CC1 [Cpd 329, 1-(Phenylcarbonyl)-4-(1-{[7-(trifluoromethyl)-1-benzothiophen-2-yl]carbonyl}azetidin-3-yl)piperazine] |  | 1.22 µM |  | 0.0626 µM |  |  |  | 520% | 
6 | O=C(c1ccccc1)N1CCc2cc(C(=O)N3CC(N4CCN(C(=O)c5nccs5)CC4)C3)ccc2C1 [Cpd 736] |  | 0.273 µM | 499% | 0.067 µM |  |  |  |  | 
7 | O=C(c1ccc(N2CCCC2)cc1)N1CC(N2CCN(C(=O)c3nccs3)CC2)C1 [Cpd 669] | 0.005 µM | 0.015 µM | 583% |  |  |  |  |  | 
8 | O=C(c1ccccc1)N1CCN(C2CN(C(=O)c3ccc4c(ccn4-c4ccc(OC(F)(F)F)cc4)c3)C2)CC1 [Cpd 573] |  | 0.046 µM | 277% |  |  | 0.1 µM |  |  | 
9 | O=C(c1cc(-c2ccccc2)cc(C(F)(F)F)c1)N1CC(N2CCN(C(=O)c3nccs3)CC2)C1 [Cpd 1144, 1-(1,3-Thiazol-2-ylcarbonyl)-4-(1-{[5-(trifluoromethyl)biphenyl-3-yl]carbonyl}azetidin-3-yl)piperazine] | 0.181 µM | 0.031 µM | 212% |  |  |  |  |  | 
10 | Cc1ccc(-c2nnc(-c3ccc(C(=O)N4CC(N5CCN(C(=O)c6nccs6)CC5)C4)cc3)o2)cc1 [Cpd 1156] | 0.09 µM | 0.041 µM | 681% |  |  |  |  |  | 
11 | Cc1c(C(=O)N2CC(N3CCN(C(=O)c4nccs4)CC3)C2)n(C)c2ccc(Cl)cc12 [Cpd 696] |  | 0.059 µM | 444% |  | 0.063 µM |  |  |  | 
12 | O=C(c1cscn1)N1CCN(C2CN(C(=O)c3ccc(-c4cccc(C(F)(F)F)c4)cc3F)C2)CC1 [Cpd 245, 1-(1-{[3-Fluoro-3′-(trifluoromethyl)biphenyl-4-yl]carbonyl}azetidin-3-yl)-4-(1,3-thiazol-4-ylcarbonyl)piperazine] |  | 0.0164 µM | 518% | 0.0095 µM |  |  |  | 829% | 224%

Molecules with a lower IC50 [1], results first:

Row | Kd (mutant MGL; [2]) | IC50 [1] | 2-AG accumulation, % of vehicle control at 1 µM (MGL) | Kd (mutant MGL; [3]) | Kd (mutant MGL; [4]) | Kd (mutant MGL; [5]) | Kd (mutant MGL; compound concentration measured by qNMR, read-out: MGL mutant ThermoFluor qKd (using qNMR conc.)) | 2-AG accumulation, % of vehicle control at 10 µM (MGL) | 2-AG accumulation, % of vehicle control at 0.1 µM (MGL; compound 0.1 μM, read-out: Rat Brain 2AG % VehCntrl (%) @ 0.1 μM) | SMILES
13 | 0.1 µM | 0.0073 µM | 217% |  |  |  |  |  |  | O=C(c1ccc(-c2ccc(Br)cc2)cc1)N1CC(N2CCN(C(=O)c3cscn3)CC2)C1 [Cpd 172, 1-{1-[(4′-Bromobiphenyl-4-yl)carbonyl]azetidin-3-yl}-4-(1,3-thiazol-4-ylcarbonyl)piperazine]
14 | 0.002 µM | < 0.005 µM | 589% |  | 0.005 µM |  |  |  |  | O=C(c1ccc(-n2nc3c(c2-c2cccc(C(F)(F)F)c2)CCC3)cc1)N1CC(N2CCN(C(=O)c3nccs3)CC2)C1 [Cpd 1330]
15 |  | < 0.005 µM | 520% | 0.009 µM |  |  |  |  |  | Cc1c(C(=O)N2CC(N3CCN(C(=O)c4cscn4)CC3)C2)sc2ccc(C(F)(F)F)cc12 [Cpd 898]
16 |  | < 0.005 µM | 346% | 0.136 µM |  |  |  |  |  | O=C(c1cc2cc(-c3ccccc3)ccc2o1)N1CC(N2CCN(C(=O)c3nccs3)CC2)C1 [Cpd 1342]
17 |  | < 0.005 µM | 548% |  |  | 0.008 µM |  |  |  | Cc1cc(C(=O)N2CC(N3CCN(C(=O)c4nccs4)CC3)C2)sc1-c1ccc(C(F)(F)F)cc1 [Cpd 1352]
18 |  | 0.008 µM | 833% |  |  | 0.01 µM |  |  |  | Cc1c(C(=O)N2CC(N3CCN(C(=O)c4nccs4)CC3)C2)[nH]c2ccc(-c3ccc(F)cc3)cc12 [Cpd 1075, 5-(4-Fluorophenyl)-3-methyl-2-({3-[4-(1,3-thiazol-2-ylcarbonyl)piperazin-1-yl]azetidin-1-yl}carbonyl)-1H-indole]
19 | 0.011 µM | 0.008 µM | 303% |  |  |  |  |  |  | Cc1cc(-c2ccccc2)ccc1C(=O)N1CC(N2CCN(C(=O)c3nccs3)CC2)C1 [Cpd 1074, 1-{1-[(3-Methylbiphenyl-4-yl)carbonyl]azetidin-3-yl}-4-(1,3-thiazol-2-ylcarbonyl)piperazine]
20 | 0.025 µM | 0.007 µM | 258% |  |  |  |  |  |  | O=C(c1ccc(S(=O)(=O)c2cccc(C(F)(F)F)c2)cc1)N1CC(N2CCN(C(=O)c3nccs3)CC2)C1 [Cpd 651]
21 |  | < 0.005 µM | 816% |  |  | 0.001 µM |  |  |  | O=C(c1nccs1)N1CCN(C2CN(C(=O)c3sc4cc(F)c(C(F)(F)F)cc4c3Cl)C2)CC1 [Cpd 901, 1-(1-{[3-Chloro-6-fluoro-5-(trifluoromethyl)-1-benzothiophen-2-yl]carbonyl}azetidin-3-yl)-4-(1,3-thiazol-2-ylcarbonyl)piperazine]
22 |  | 0.007 µM | 451% |  | 0.1 µM |  |  |  |  | O=C(c1ccc2c(ccn2-c2ccc(C(F)(F)F)nc2)c1)N1CC(N2CCN(C(=O)c3ccc[nH]3)CC2)C1 [Cpd 1062, 5-({3-[4-(1H-Pyrrol-2-ylcarbonyl)piperazin-1-yl]azetidin-1-yl}carbonyl)-1-[6-(trifluoromethyl)pyridin-3-yl]-1H-indole]
23 |  | 0.006 µM | 507% |  |  | 0.066 µM |  |  |  | Cc1sc(C(=O)N2CC(N3CCN(C(=O)c4nccs4)CC3)C2)cc1-c1cccc(F)c1 [Cpd 1059]
24 |  | < 0.005 µM | 585% |  |  | 0.004 µM |  |  |  | O=C(c1nccs1)N1CCN(C2CN(C(=O)c3sc4c(C(F)(F)F)c(F)ccc4c3Cl)C2)CC1 [Cpd 902, 1-(1-{[3-chloro-6-fluoro-7-(trifluoromethyl)-1-benzothiophen-2-yl]carbonyl}azetidin-3-yl)-4-(1,3-thiazol-2-ylcarbonyl)piperazine]
25 | 0.01 µM | < 0.005 µM | 543% |  |  |  |  |  |  | O=C(c1ccc2c(-c3ccc(C(F)(F)F)cc3)c[nH]c2c1)N1CC(N2CCN(C(=O)c3cscn3)CC2)C1 [Cpd 1344]
26 | 0.025 µM | 0.008 µM | 552% |  |  |  |  |  |  | O=C(c1ccc(-c2ccc(C(F)(F)F)s2)cc1)N1CC(N2CCN(C(=O)c3cscn3)CC2)C1 [Cpd 1071, 1-(1,3-Thiazol-4-ylcarbonyl)-4-[1-({4-[5-(trifluoromethyl)thiophen-2-yl]phenyl}carbonyl)azetidin-3-yl]piperazine]
